PMC6152131, “Pharmacokinetic Study of Biotransformation Products from an Anxiolytic Fraction of Tilia americana” (Molecules : A Journal of Synthetic Chemistry and Natural …, 2017)

Tests used:
[1] = Stability of flavonoids and biotransformation products in mouse plasma under different handling conditions; type: in vitro ADME, mice; settings: for Accuracy Bias 0 h / Observed Conc. 0 h / Accuracy Bias 8 h / Observed Conc. 8 h / Accuracy Bias 24 h / Observed Conc. 24 h: room temperature (25 °C); for Observed Conc. 0 h / Observed Conc. 8 h / Observed Conc. 24 h / Observed Conc. Autosampler (4 °C; 8 h) / Observed Conc. Long-term (−70 °C; 1 month): n = 6; for Accuracy Bias Autosampler (4 °C; 8 h) / Accuracy Bias Long-term (−70°C; 1 month) / Observed Conc. Autosampler (4 °C; 8 h) / Observed Conc. Long-term (−70 °C; 1 month): storage stability
Experimental: (§1) Plasma dried pulverized samples were extracted with methanol (HPLC grade, Merck). The extracts were filtered with Teflon membrane dimensions 0.45 μm by 13 mm (Millex®-LCR); 20 μL of each filtered sample was injected into the HPLC equipment. The measurements were performed in a (Waters corporation, Milford, CT, USA) 2695 HPLC with a diode array detector (Waters 2996) and processed with the Empower Pro 1.0 software. A Chromolith Performance® RP-18e 100 × 4.6 mm (Merck KGaA, Darmstadt, Germany) was used. The mobile phase consisted of a mixture of acetonitrile and water with the proportion 55:45 and a flow rate of 1 mL/min. The concentrations of the flavonoids and the biotransformation products were obtained by comparison with a pre-built calibration curve at λ = 220 nm.
[…] The investigation enclosed here expected manipulation conditions during all the sample storage and process periods, which included the stability data from the freeze/thaw, bench-top, autosampler, and long–term stability tests.
For all stability studies, fresh QC samples were evaluated by using a freshly prepared standard curve for the measurements. The concentrations obtained from all the stability studies were compared with the fresh QC samples, and the percentage concentration deviation was calculated. The analytes were considered stable in the mouse plasma when the concentration difference between the freshly prepared samples and the stability samples was less than 15%.

[2] = Plasma concentration after a single oral dose of the anxiolytic fraction (HPLC); type: in vivo, ICR mice; settings: mouse, plasma, ICR mice, n = 10
Experimental: Eleven groups of ten animals each were randomly formed. All animals were orally administered with 200 mg/kg of the active fraction. Animals were anaesthetized with ether, and blood samples were obtained from the retroorbital sinus with a heparinized capillary, each group was examined at different times (0, 5, 10, 15, 30, 60, 120, 240, 480, 720, and 1440 min) after the active fraction was administered. […] Then the plasma samples were frozen and lyophilized. The dry plasma was subsequently used to extract and measure the concentration of the flavonoids and biotransformation products.
as §1
(§2) To evaluate the suitability of the assay for the pharmacokinetic studies, 200 mg/kg of the active fraction was orally administered to the animals. Ten animals were used in each group at different times (0, 5, 10, 15, 30, 60, 120, 240, 480, 720, and 1440 min). Pharmacokinetic calculations were performed using the observed data. All data was subsequently processed using the PKSolver add-in program for Microsoft Excel written in Visual Basic for Applications. All values obtained were expressed in mean ± standard deviation.

[3] = Pharmacokinetic analysis, two-compartment model (PKSolver); type: in vivo, ICR mice; settings: two-compartment model
Experimental: The data shown in Table 2 were applied to the program PKSolver. After a single oral administration of 200 mg/kg of the anxiolitic fraction of T. americana, the behavior of the concentration-time data allowed us to determine the main pharmacokinetic parameters under a two-compartment model (Table 3), and the same program provided the graphical behavior of the variables and the adjustment to the two-compartment model.
as §2
For the pharmacokinetic assay, the selection was made either from a one-compartment or a two-compartment model, with the use of both the Akaike information criterion (AIC) and the Schwarz criterion (SC). Using these two criteria, one can select which model is more suited to being adjusted, to the point where it reaches the lowest values of the AIC or SC criteria, which means that the chosen model is more parsimonious (less parameters required) and best fits the data (low error prediction).

[4] = high nominal conc. (7.00; 44.37; 4.50; 31.25 µg/mL)
[5] = low nominal conc. (1.75; 11.02; 1.12; 1.95 µg/mL)
[6] = medium nominal conc. (3.50; 22.18; 2.24; 7.81 µg/mL)
[7] = mouse, oral 200 mg/kg anxiolytic fraction, ICR mice plasma
[8] = oral 200 mg/kg anxiolytic fraction, ICR mice plasma
[9] = oral 200 mg/kg anxiolytic fraction, ICR mice plasma, n = 10

SMILES: O=C(O)Cc1ccc(O)cc1 [p-HPAA, para-hydroxyphenylacetic acid]
- Accuracy Bias 0 h ([1]; high nominal conc.): 1.64%
- Observed Conc. 0 h ([1]; high nominal conc. (rutin 7.00; quercetin glucoside, quercitrin, tiliroside 44.37; kaempferol 4.50; m-HPAA, p-HPAA, DOPAC 31.25 µg/mL)): 31.76 ± 0.28 µg/mL
- Accuracy Bias 0 h ([1]; low nominal conc.): 1.44%
- Observed Conc. 0 h ([1]; low nominal conc. (rutin 1.75; quercetin glucoside, quercitrin, tiliroside 11.02; kaempferol 1.12; m-HPAA, p-HPAA, DOPAC 1.95 µg/mL)): 1.92 ± 0.02 µg/mL
- Accuracy Bias 0 h ([1]; medium nominal conc.): 0.65%
- Observed Conc. 0 h ([1]; medium nominal conc. (rutin 3.50; quercetin glucoside, quercitrin, tiliroside 22.18; kaempferol 2.24; m-HPAA, p-HPAA, DOPAC 7.81 µg/mL)): 7.86 ± 0.11 µg/mL
- Accuracy Bias 8 h ([1]; high nominal conc.): 1.26%
- Observed Conc. 8 h [1, 4]: 31.64 ± 0.28 µg/mL
- Accuracy Bias 8 h ([1]; low nominal conc.): 1.40%
- Observed Conc. 8 h [1, 5]: 1.92 ± 0.02 µg/mL
- Accuracy Bias 8 h ([1]; medium nominal conc.): 2.05%
- Observed Conc. 8 h [1, 6]: 7.94 ± 0.11 µg/mL
- Accuracy Bias 24 h ([1]; high nominal conc.): 1.26%
- Observed Conc. 24 h [1, 4]: 31.64 ± 0.31 µg/mL
- Accuracy Bias 24 h ([1]; low nominal conc.): 0.85%
- Observed Conc. 24 h [1, 5]: 1.93 ± 0.01 µg/mL
- Accuracy Bias 24 h ([1]; medium nominal conc.): 1.01%
- Observed Conc. 24 h [1, 6]: 7.89 ± 0.05 µg/mL
- Accuracy Bias Autosampler (4 °C; 8 h) ([1]; high nominal conc.): 1.40%
- Accuracy Bias Long-term (−70°C; 1 month) ([1]; high nominal conc.): 0.85%
- Observed Conc. Autosampler (4 °C; 8 h) [1, 4]: 31.64 ± 0.28 µg/mL
- Observed Conc. Long-term (−70 °C; 1 month) [1, 4]: 31.64 ± 0.28 µg/mL
- Accuracy Bias Autosampler (4 °C; 8 h) ([1]; low nominal conc.): 1.26%
- Accuracy Bias Long-term (−70°C; 1 month) ([1]; low nominal conc.): 1.26%
- Observed Conc. Autosampler (4 °C; 8 h) [1, 5]: 1.93 ± 0.02 µg/mL
- Observed Conc. Long-term (−70 °C; 1 month) [1, 5]: 1.92 ± 0.01 µg/mL
- Accuracy Bias Autosampler (4 °C; 8 h) ([1]; medium nominal conc.): 2.05%
- Accuracy Bias Long-term (−70°C; 1 month) ([1]; medium nominal conc.): 1.01%
- Observed Conc. Autosampler (4 °C; 8 h) [1, 6]: 7.89 ± 0.11 µg/mL
- Observed Conc. Long-term (−70 °C; 1 month) [1, 6]: 7.97 ± 0.05 µg/mL
- concentration at 5 min ([2]; 5 min after single oral dose of 200 mg/kg of the anxiolytic fraction, ND = not detected): 5400 ± 360 ng/mL
- concentration at 10 min ([2]; 10 min after single oral dose of 200 mg/kg of the anxiolytic fraction): 6710 ± 440 ng/mL
- concentration at 15 min ([2]; 15 min after single oral dose of 200 mg/kg of the anxiolytic fraction): 6010 ± 330 ng/mL
- concentration at 30 min ([2]; 30 min after single oral dose of 200 mg/kg of the anxiolytic fraction): 5380 ± 510 ng/mL
- concentration at 60 min ([2]; 60 min after single oral dose of 200 mg/kg of the anxiolytic fraction): 5310 ± 540 ng/mL
- concentration at 120 min ([2]; 120 min after single oral dose of 200 mg/kg of the anxiolytic fraction): 5290 ± 320 ng/mL
- concentration at 240 min ([2]; 240 min after single oral dose of 200 mg/kg of the anxiolytic fraction): 5150 ± 230 ng/mL
- concentration at 480 min ([2]; 480 min after single oral dose of 200 mg/kg of the anxiolytic fraction): 5080 ± 240 ng/mL
- concentration at 720 min ([2]; 720 min after single oral dose of 200 mg/kg of the anxiolytic fraction): 4990 ± 350 ng/mL
- concentration at 1440 min ([2]; 1440 min after single oral dose of 200 mg/kg of the anxiolytic fraction): 4910 ± 210 ng/mL
- AUC(0-inf) [3, 7]: 183 µg·h/mL
- Cmax [3, 7]: 6260 ng/mL
- Tmax [3, 7]: 0.186 h
- AUC(0-t) ([3]; mouse, oral 200 mg/kg anxiolytic fraction, ICR mice plasma, read-out: AUC0→1440 (converted)): 73.7 µg·h/mL
- MRT ([3]; mouse, oral 200 mg/kg anxiolytic fraction, ICR mice plasma, read-out: MRT (mean residence time) (converted)): 47.2 h
- k el ([3]; mouse, oral 200 mg/kg anxiolytic fraction, ICR mice plasma, read-out: k10 (apparent first-order elimination rate constant from the central compartment) (converted)): 1e-05 s⁻¹
- half-life ([3]; mouse, oral 200 mg/kg anxiolytic fraction, ICR mice plasma, read-out: t1/2β): 33.2 h
- CL/F (apparent clearance) [3, 8]: 0.018 (mg/Kg)/(μg/mL)/min
- V/F (apparent volume of distribution) [3, 8]: 29.46 (mg/Kg)/(µg/mL)
- k12 (transfer rate constant central to peripheral compartment) [3, 8]: 0.007 min⁻¹
- k21 (transfer rate constant peripheral to central compartment) [3, 8]: 0.009 min⁻¹
- ka (apparent first-order absorption rate constant) [3, 8]: 0.36 min⁻¹
- t1/2ka (absorption half time) [3, 8]: 1.92 min
- t1/2α [3, 8]: 0.7042 h
- α [3, 8]: 0.02 min⁻¹
- β [3, 8]: 0.0003 min⁻¹
- A (plasma concentration coefficient, central compartment) [3, 9]: 3.19 µg/mL
- B (plasma concentration coefficient, peripheral compartment) [3, 9]: 3.75 µg/mL
- index: relation between rate constants of k12 with respect to k21 [3]: 0.77
